Where two headings read alike, the source gives them in different places.
Key:
PI3K β = biological target: T1, PI3K β (Homo sapiens, UniProt P42338); test: In vitro PI3 kinase enzyme assay (beta), ATP loss, bioluminescence; assay type: biochemical; conditions: read-out: PI3Kβ ATP loss IC50;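 also: purified p110β/p85 heterodimer with PtdIns(4,5)P2 as acceptor, incubated at room temperature, leftover ATP read by luminescence, inhibition scaled to compound-free wells with and without enzyme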
T1 construct: Full length p110 subunits of PI3K α, β and δ, N-terminally labeled with polyHis tag; polyHis (N); made in house; host or cells: Sf9 insect cells (baculovirus)
Protocol: Full length p110 subunits of PI3K α, β and δ, N-terminally labeled with polyHis tag, were co-expressed with p85 in baculovirus expression vectors in sf9 insect cells. P110/p85 heterodimers were purified by sequential Ni-NTA, Q-HP, and Superdex-100 chromatography. Purified α, β and δ isozymes were stored at −20° C. in 20 mM Tris, pH 8, 0.2M NaCl, 50% glycerol, 5 mM DTT, 2 mM Na cholate.
PI3K enzyme assays (alpha, beta, delta and gamma) were performed in 25 mL with the above final concentrations of components in white polypropylene plates (Costar catalogue #3355). Phosphatidyl inositol phosphoacceptor, PtdIns(4,5)P2 (eg. P4508) was obtained from Echelon Biosciences. The ATPase activity of the alpha and gamma isozymes was not greatly stimulated by PtdIns(4,5)P2 under these conditions and was therefore omitted from the assay of these isozymes. Test compounds were dissolved in DMSO and diluted with three-fold serial dilutions. The compound in DMSO (1 μL) was added per test well, and the inhibition relative to reactions containing no compound, with and without enzyme was determined. After assay incubation at RT, the reaction was stopped and residual ATP determined by addition of an equal volume of a commercial ATP bioluminescence kit (Perkin Elmer EasyLite) according to the manufacturer's instructions, and detected using an Analyst GT luminometer.

[1] = system: phosphorylation of Serine 473 in Akt, HCT 116 human colon carcinoma cells; test: Cell-based phospho-AKT Ser473 assay (MSD sandwich immunoassay, IGF-1 stimulated); conditions: Homo sapiens
Summary of the method: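 Akt Ser473 phosphorylation was measured by MSD electrochemiluminescent sandwich immunoassay in lysates of HCT116 cells (16,000 cells/well). Cells received a compound dilution series for 2 h at 37 °C before a 15 min IGF-1 (100 ng/ml) stimulus, with IC50 calculated from the dose-response.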

PI3K α = biological target: T2, PI3K α (Homo sapiens, UniProt P42336); test: In vitro PI3 kinase enzyme assay (alpha), ATP loss, bioluminescence; assay type: biochemical; conditions: read-out: PI3Kα ATP loss IC50;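 also: purified p110α/p85 heterodimer acting on PtdIns(4,5)P2 at room temperature, remaining ATP read by luminescence, inhibition scaled between compound-free wells with and without enzyme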
T2 construct: Full length p110 subunits of PI3K α, β and δ, N-terminally labeled with polyHis tag; polyHis (N); made in house; host or cells: Sf9 insect cells (baculovirus)

[2] = HCT-116, HCT 116 cells, read-out: HCT 116 pAKT IC50
[3] = HCT-116, read-out: HCT 116 pAKT IC50

T2 sequence (P42336 whole entry, species assumed): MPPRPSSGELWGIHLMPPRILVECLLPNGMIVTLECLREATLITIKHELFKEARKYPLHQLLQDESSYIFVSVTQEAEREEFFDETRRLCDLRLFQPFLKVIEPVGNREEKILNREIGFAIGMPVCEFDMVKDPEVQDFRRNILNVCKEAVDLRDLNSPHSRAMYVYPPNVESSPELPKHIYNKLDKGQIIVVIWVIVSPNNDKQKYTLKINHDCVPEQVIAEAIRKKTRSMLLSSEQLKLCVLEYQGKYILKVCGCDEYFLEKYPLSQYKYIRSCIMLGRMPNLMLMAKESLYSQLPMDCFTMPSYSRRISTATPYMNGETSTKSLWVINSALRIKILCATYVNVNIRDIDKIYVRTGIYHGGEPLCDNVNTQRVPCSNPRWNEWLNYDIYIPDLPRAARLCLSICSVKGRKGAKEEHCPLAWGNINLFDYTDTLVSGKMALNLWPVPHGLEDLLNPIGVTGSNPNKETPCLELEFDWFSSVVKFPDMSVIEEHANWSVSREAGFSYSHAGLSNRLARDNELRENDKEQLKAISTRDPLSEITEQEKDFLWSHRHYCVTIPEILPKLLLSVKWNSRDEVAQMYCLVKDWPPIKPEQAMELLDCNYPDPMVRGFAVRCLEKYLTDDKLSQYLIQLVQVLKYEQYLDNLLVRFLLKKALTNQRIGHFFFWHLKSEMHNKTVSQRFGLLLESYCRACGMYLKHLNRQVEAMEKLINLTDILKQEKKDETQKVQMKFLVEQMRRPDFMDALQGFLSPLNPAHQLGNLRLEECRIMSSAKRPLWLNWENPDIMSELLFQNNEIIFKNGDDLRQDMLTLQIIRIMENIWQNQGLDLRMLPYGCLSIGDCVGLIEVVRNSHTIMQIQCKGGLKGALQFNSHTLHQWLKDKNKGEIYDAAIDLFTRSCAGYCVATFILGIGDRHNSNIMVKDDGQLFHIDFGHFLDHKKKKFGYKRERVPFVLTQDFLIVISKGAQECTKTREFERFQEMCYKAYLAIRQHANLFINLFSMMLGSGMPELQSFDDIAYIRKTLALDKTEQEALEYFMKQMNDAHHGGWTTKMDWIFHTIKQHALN
T2 sequence (P27986 whole entry partner, species assumed): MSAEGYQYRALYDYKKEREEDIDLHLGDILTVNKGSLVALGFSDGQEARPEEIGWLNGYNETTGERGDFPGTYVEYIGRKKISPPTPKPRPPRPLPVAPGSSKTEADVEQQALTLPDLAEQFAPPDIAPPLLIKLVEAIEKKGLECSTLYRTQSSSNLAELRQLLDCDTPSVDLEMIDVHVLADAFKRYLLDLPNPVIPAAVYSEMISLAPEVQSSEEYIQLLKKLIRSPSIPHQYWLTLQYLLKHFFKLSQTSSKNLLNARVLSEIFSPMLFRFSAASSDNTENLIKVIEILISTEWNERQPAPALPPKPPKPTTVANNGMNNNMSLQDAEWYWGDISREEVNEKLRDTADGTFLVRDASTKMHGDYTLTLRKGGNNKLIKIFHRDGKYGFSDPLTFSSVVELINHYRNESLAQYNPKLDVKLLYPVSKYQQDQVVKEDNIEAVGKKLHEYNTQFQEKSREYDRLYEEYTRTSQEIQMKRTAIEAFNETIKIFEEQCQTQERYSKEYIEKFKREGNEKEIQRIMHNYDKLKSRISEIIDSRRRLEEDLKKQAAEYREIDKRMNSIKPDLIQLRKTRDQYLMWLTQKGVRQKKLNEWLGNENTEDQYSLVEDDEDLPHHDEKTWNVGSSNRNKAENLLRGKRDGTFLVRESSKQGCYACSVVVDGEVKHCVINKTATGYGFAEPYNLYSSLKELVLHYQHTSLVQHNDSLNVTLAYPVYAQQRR
T1 sequence (P42338 whole entry): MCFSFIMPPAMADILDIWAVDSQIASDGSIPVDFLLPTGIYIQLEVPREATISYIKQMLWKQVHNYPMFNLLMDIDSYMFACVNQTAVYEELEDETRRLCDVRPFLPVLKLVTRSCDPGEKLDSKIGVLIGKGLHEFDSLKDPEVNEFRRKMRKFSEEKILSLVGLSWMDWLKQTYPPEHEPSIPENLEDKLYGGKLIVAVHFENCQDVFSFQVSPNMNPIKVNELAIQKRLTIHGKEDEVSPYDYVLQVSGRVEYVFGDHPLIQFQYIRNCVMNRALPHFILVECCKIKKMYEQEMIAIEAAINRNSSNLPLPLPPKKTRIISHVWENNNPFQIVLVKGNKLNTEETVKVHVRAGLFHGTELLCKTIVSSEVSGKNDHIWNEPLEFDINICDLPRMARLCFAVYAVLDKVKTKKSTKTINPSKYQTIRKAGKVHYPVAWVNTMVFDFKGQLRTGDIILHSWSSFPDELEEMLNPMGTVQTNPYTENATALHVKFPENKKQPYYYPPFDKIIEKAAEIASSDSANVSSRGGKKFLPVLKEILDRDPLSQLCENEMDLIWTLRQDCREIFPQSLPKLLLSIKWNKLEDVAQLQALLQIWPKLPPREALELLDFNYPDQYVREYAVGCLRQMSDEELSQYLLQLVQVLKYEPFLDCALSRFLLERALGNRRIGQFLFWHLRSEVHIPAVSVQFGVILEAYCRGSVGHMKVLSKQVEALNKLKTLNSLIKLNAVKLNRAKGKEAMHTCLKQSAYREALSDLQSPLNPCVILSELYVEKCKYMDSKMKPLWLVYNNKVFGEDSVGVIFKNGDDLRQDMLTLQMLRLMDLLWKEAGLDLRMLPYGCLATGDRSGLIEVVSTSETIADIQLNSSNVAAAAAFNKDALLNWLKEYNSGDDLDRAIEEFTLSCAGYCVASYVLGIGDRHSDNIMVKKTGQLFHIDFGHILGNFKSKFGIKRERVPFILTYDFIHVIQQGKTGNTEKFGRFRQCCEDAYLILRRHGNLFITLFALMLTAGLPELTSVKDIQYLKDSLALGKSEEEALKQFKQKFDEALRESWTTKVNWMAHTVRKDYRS
T1 sequence (P27986 whole entry partner): as the sequence (P27986 whole entry partner, species assumed) above

Row | IC50 (PI3K β) | IC50 [1, 2] | IC50 (PI3K α) | Structure (SMILES) | IC50 [1, 3]
1 | 496 nM | 190 nM | 19.1 nM | CC(=O)Nc1nc2ccc(-c3cncc(S(=O)(=O)c4ccccc4F)n3)cc2s1 [Example 121, N-(6-(6-((2-fluorophenyl)sulfonyl)-2-pyrazinyl)-1,3-benzothiazol-2-yl)acetamide] | –
2 | 90.8 nM | 66.6 nM | 24.7 nM | COc1ncc(-c2ccc3nc(NC(C)=O)sc3c2)cc1N(C)C [Example 124, N-(6-(5-(dimethylamino)-6-methoxy-3-pyridinyl)-1,3-benzothiazol-2-yl)acetamide] | –
3 | 425 nM | 548 nM | 25.4 nM | CC(=O)Nc1nc2ccc(-c3ccnc(Sc4ccccc4Cl)n3)cc2s1 [Example 125, N-(6-(2-((2-chlorophenyl)sulfanyl)-4-pyrimidinyl)-1,3-benzothiazol-2-yl)acetamide] | –
4 | 321 nM | 80.6 nM | 27.1 nM | COc1ccc(S(=O)(=O)N(C)c2cncc(-c3ccc4nc(NC(C)=O)sc4c3)n2)cc1 [Example 126, N-(6-(6-(((4-methoxyphenyl)sulfonyl)(methyl)amino)-2-pyrazinyl)-1,3-benzothiazol-2-yl)acetamide] | –
5 | 31.6 nM | 58.1 nM | 27.8 nM | CC(=O)Nc1nc2ccc(-c3cncc(N(C)S(=O)(=O)c4ccc(C)cc4)n3)cc2s1 [Example 127, N-(6-(6-(methyl((4-methylphenyl)sulfonyl)amino)-2-pyrazinyl)-1,3-benzothiazol-2-yl)acetamide] | –
6 | 477 nM | 978 nM | 38.3 nM | CC(=O)Nc1nc2ccc(-c3ccnc(Sc4c(C)cccc4C)n3)cc2s1 [Example 129, N-(6-(2-((2,6-dimethylphenyl)sulfanyl)-4-pyrimidinyl)-1,3-benzothiazol-2-yl)acetamide] | –
7 | 65 nM | 442 nM | 39 nM | CC(=O)Nc1nc2ccc(-c3cncc(Sc4ccccc4F)n3)cc2s1 [Example 130, N-(6-(6-((2-fluorophenyl)sulfanyl)-2-pyrazinyl)-1,3-benzothiazol-2-yl)acetamide] | –
8 | 126 nM | 1800 nM | 41.3 nM | COc1ccc(S(=O)(=O)Nc2nccc(-c3cc(F)c4nc(NC(C)=O)sc4c3)n2)cc1 [Example 131, N-(4-fluoro-6-(2-(((4-methoxyphenyl)sulfonyl)amino)-4-pyrimidinyl)-1,3-benzothiazol-2-yl)acetamide] | –
9 | 379 nM | 316 nM | 41.4 nM | CC(=O)Nc1nc2ccc(-c3cnc(Cl)c(NC(C)C)c3)cc2s1 [Example 132, N-(6-(6-chloro-5-((1-methylethyl)amino)-3-pyridinyl)-1,3-benzothiazol-2-yl)acetamide] | –
10 | 75.4 nM | 1230 nM | 41.5 nM | COc1ccc(Sc2cncc(-c3ccc4nc(NC(C)=O)sc4c3)n2)cc1 [Example 133, N-(6-(6-((4-methoxyphenyl)sulfanyl)-2-pyrazinyl)-1,3-benzothiazol-2-yl)acetamide] | –
11 | 668 nM | 1220 nM | 47 nM | CC(=O)Nc1nc2ccc(-c3ccnc(Sc4ccccc4Br)n3)cc2s1 [Example 134, N-(6-(2-((2-bromophenyl)sulfanyl)-4-pyrimidinyl)-1,3-benzothiazol-2-yl)acetamide] | –
12 | 219 nM | 1970 nM | 54.2 nM | CC(=O)Nc1nc2ccc(-c3cncc(OCc4ccccc4)n3)cc2s1 [Example 135, N-(6-(6-(benzyloxy)-2-pyrazinyl)-1,3-benzothiazol-2-yl)acetamide] | –
13 | 199 nM | 172 nM | 58.6 nM | CC(=O)Nc1nc2ccc(-c3cccc(NS(=O)(=O)c4ccc(C)cc4)c3)nc2s1 [Example 136, N-(5-(3-(4-methylphenylsulfonamido)phenyl)thiazolo[5,4-b]pyridin-2-yl)acetamide] | –
14 | 1140 nM | 901 nM | 65 nM | CC(=O)Nc1nc2c(F)cc(-c3cccc(S(=O)(=O)c4ccccc4F)n3)cc2s1 [Example 137, N-(4-fluoro-6-(6-((2-fluorophenyl)sulfonyl)-2-pyridinyl)-1,3-benzothiazol-2-yl)acetamide] | –
15 | 846 nM | 850 nM | 95.4 nM | CC(C)Nc1cc(-c2ccc3nc(NC(=O)Cc4ccccn4)sc3c2)cnc1Cl [Example 141, N-(6-(6-chloro-5-(isopropylamino)pyridin-3-yl)benzo[d]thiazol-2-yl)-2-(pyridin-2-yl)acetamide] | –
16 | 109 nM | 328 nM | 111 nM | COc1ccc(S(=O)(=O)N(C)c2nccc(-c3cc(F)c4nc(NC(C)=O)sc4c3)n2)cc1 [Example 143, N-(4-fluoro-6-(2-(((4-methoxyphenyl)sulfonyl)(methyl)amino)-4-pyrimidinyl)-1,3-benzothiazol-2-yl)acetamide] | –
17 | 1570 nM | 723 nM | 112 nM | COCC(=O)Nc1nc2ccc(-c3cnc(Cl)c(NC(C)C)c3)cc2s1 [Example 144, N-(6-(6-chloro-5-((1-methylethyl)amino)-3-pyridinyl)-1,3-benzothiazol-2-yl)-2-methoxyacetamide] | –
18 | 424 nM | 851 nM | 114 nM | COc1ncc(-c2ccc3nc(NC(C)=O)sc3c2)cc1NC(C)C [Example 145, N-(6-(6-methoxy-5-((1-methylethyl)amino)-3-pyridinyl)-1,3-benzothiazol-2-yl)acetamide] | –
19 | 5680 nM | 440 nM | 149 nM | CNc1ncc(-c2ccc3nc(NC(C)=O)sc3c2)cc1NC(C)C [Example 147, N-(6-(5-(isopropylamino)-6-(methylamino)pyridin-3-yl)benzo[d]thiazol-2-yl)acetamide] | –
20 | 1360 nM | 881 nM | 151 nM | COc1ccc(S(=O)(=O)c2cccc(-c3cc(F)c4nc(NC(C)=O)sc4c3)n2)cc1 [Example 148, N-(4-fluoro-6-(6-((4-methoxyphenyl)sulfonyl)-2-pyridinyl)-1,3-benzothiazol-2-yl)acetamide] | –
21 | 902 nM | 503 nM | 186 nM | CC(=O)Nc1nc2ccc(-c3cncc(Cl)n3)cc2s1 [Example 150, N-(6-(6-chloro-2-pyrazinyl)-1,3-benzothiazol-2-yl)acetamide] | –
22 | 1620 nM | > 5000 nM | 230 nM | CC(C)Nc1cc(-c2ccc3nc(NC(=O)C[C@@H]4CCCO4)sc3c2)cnc1Cl [Example 151, N-(6-(6-chloro-5-((1-methylethyl)amino)-3-pyridinyl)-1,3-benzothiazol-2-yl)-2-((2S)-tetrahydro-2-furanyl)acetamide] | –
23 | 1150 nM | 1990 nM | 509 nM | CC(C)Nc1cc(-c2ccc3nc(N)sc3c2)cnc1Cl [Example 155, 6-(6-chloro-5-((1-methylethyl)amino)-3-pyridinyl)-1,3-benzothiazol-2-amine] | –
24 | 44.6 nM | 4.1 nM | 13.7 nM | CC(=O)Nc1nc2ccc(-c3cnc(Cl)c(NS(=O)(=O)c4ccc(C(C)(C)O)cc4)c3)cc2s1 [Example 161, N-(6-(6-chloro-5-(4-(2-hydroxypropan-2-yl)phenylsulfonamido)pyridin-3-yl)benzo[d]thiazol-2-yl)acetamide] | –
25 | 3.8 nM | 3.8 nM | 3 nM | COc1ccc(S(=O)(=O)Nc2cc(-c3ccc4nc(NC(C)=O)sc4c3)cnc2Cl)cc1 [Example 163, N-(6-(6-Chloro-5-(4-methoxyphenylsulfonamido)pyridin-3-yl)benzo[d]thiazol-2-yl)acetamide] | –
26 | 2200 nM | 239 nM | 336 nM | Cc1ccc(S(=O)(=O)Nc2nnc(-c3ccc4nc(NC(=O)OC(C)(C)C)sc4c3)o2)cc1 [Example 166, tert-Butyl 6-(5-(4-methylphenylsulfonamido)-1,3,4-oxadiazol-2-yl)benzo[d]thiazol-2-ylcarbamate] | –
27 | 12.3 nM | 15.5 nM | 7.2 nM | CC(=O)Nc1nc2ccc(-c3cnc(Cl)c(NS(=O)(=O)c4ccc(O)cc4)c3)cc2s1 [Example 174, N-(6-(6-chloro-5-(4-hydroxyphenylsulfonamido)pyridin-3-yl)benzo[d]thiazol-2-yl)acetamide] | –
28 | 5.4 nM | 11.7 nM | 3.2 nM | CC(=O)Nc1nc2ccc(-c3cnc(Cl)c(NS(=O)(=O)c4cc(Cl)cc(Cl)c4)c3)cc2s1 [Example 175, N-(6-(6-chloro-5-(3,5-dichlorophenylsulfonamido)pyridin-3-yl)benzo[d]thiazol-2-yl)acetamide] | –
29 | 12.4 nM | 18.2 nM | 10.3 nM | CC(=O)Nc1nc2ccc(-c3cnc(Cl)c(NS(=O)(=O)c4cc(F)cc(F)c4)c3)cc2s1 [Example 176, N-(6-(6-chloro-5-(3,5-difluorophenylsulfonamido)pyridin-3-yl)benzo[d]thiazol-2-yl)acetamide] | –

Row | Structure (SMILES) | IC50 (PI3K β) | IC50 [1, 2] | IC50 (PI3K α) | IC50 [1, 3]
30 | COc1ccc(S(=O)(=O)Nc2cccc(-c3ccc4nc(NC(C)=O)sc4n3)c2)cc1 [Example 146, N-(5-(3-(4-methoxyphenylsulfonamido)phenyl)thiazolo[5,4-b]pyridin-2-yl)acetamide] | 359 nM | – | 117 nM | 373 nM
31 | CC(=O)Nc1nc2ccc(-c3cnc(Cl)c(NS(=O)(=O)C4CCCCC4)c3)cc2s1 [Example 171, N-(6-(6-chloro-5-(cyclohexanesulfonamido)pyridin-3-yl)benzo[d]thiazol-2-yl)acetamide] | 26.3 nM | – | 3.2 nM | 43.3 nM
